Data: patent US10961231B2, “NTCP inhibitors” (National Institute of Biological Sciences, Beijing, priority 2018, dated 2021)

Molecular target: T1, NTCP (Homo sapiens, UniProt Q14973)
T1 sequence (Q14973 1-349): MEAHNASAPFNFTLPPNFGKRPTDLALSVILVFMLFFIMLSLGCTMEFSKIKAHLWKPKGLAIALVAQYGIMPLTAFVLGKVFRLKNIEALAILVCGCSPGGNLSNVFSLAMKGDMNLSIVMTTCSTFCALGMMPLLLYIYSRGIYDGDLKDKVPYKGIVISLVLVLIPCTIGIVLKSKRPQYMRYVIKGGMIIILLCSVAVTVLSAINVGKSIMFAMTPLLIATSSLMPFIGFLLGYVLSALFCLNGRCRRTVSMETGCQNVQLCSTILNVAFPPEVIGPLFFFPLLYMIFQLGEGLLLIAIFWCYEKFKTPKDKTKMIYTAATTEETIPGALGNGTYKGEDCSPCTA
Test: [3H]-TCA uptake assay (NTCP inhibition)
Type: cell-based
Summary of the method: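 PTH and HepG2-NTCP cells kept 24 h in PMM to induce NTCP, then exposed 2 h to test compounds or DMSO. Uptake of 1 μM [3H]-taurocholate in Na+ Ringer's buffer (145 mM Na) ran 15 min at 37° C. Cells washed, lysed in 1% Triton X-100, and radioactivity counted by liquid scintillation.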

[1] = given as a range, assay not given
[2] = IC50, given as a range, marked * (asterisk not explained)
[3] = given as a range, marked * (asterisk not explained)

Row | SMILES | IC50 [2] [µM] | further results
1 | CCC1NC(=O)C(C2OC(Sc3cccc(OCc4ccc(F)cc4)c3)CC2C)N(C)C(=O)C(C(C)C)N(C)C(=O)C(CC(C)C)N(C)C(=O)C(CC(C)C)N(C)C(=O)C(C)NC(=O)C(C)NC(=O)C(CC(C)C)N(C)C(=O)C(C(C)C)NC(=O)C(CC(C)C)N(C)C(=O)CN(C)C1=O [Compound 21A, [2-((2R,3R)-5-(3-(4-fluorobenzyloxy)phenylthio)-3-methyltetrahydrofuran-2-yl)-2-(methylamino)acetic acid]^1-cyclosporin A] | – | IC50 [1]: 0.001 to 1 µM
2 | CCC1NC(=O)C(C2OC(SCc3ccc(-n4cccn4)cc3)CC2C)N(C)C(=O)C(C(C)C)N(C)C(=O)C(CC(C)C)N(C)C(=O)C(CC(C)C)N(C)C(=O)C(C)NC(=O)C(C)NC(=O)C(CC(C)C)N(C)C(=O)C(C(C)C)NC(=O)C(CC(C)C)N(C)C(=O)CN(C)C1=O (stereo not drawn) [Compound 77A-s] | 1 to 100 | –
3 | CCC1NC(=O)C(C2OC(Oc3cc(Cl)cc(OC)c3)CC2C)N(C)C(=O)C(C(C)C)N(C)C(=O)C(CC(C)C)N(C)C(=O)C(CC(C)C)N(C)C(=O)C(C)NC(=O)C(C)NC(=O)C(CC(C)C)N(C)C(=O)C(C(C)C)NC(=O)C(CC(C)C)N(C)C(=O)CN(C)C1=O (stereo not drawn) [Compound 59A-o] | 1 to 100 | –
4 | CCC1NC(=O)C(C2OC(Oc3cccc(N(C)CC)c3)CC2C)N(C)C(=O)C(C(C)C)N(C)C(=O)C(CC(C)C)N(C)C(=O)C(CC(C)C)N(C)C(=O)C(C)NC(=O)C(C)NC(=O)C(CC(C)C)N(C)C(=O)C(C(C)C)NC(=O)C(CC(C)C)N(C)C(=O)CN(C)C1=O (stereo not drawn) [Compound 49A-o] | 1 to 100 | –
5 | CCC1NC(=O)C(C2OC(Sc3cccc(OCc4ccc(F)c(Cl)c4)c3)CC2C)N(C)C(=O)C(C(C)C)N(C)C(=O)C(CC(C)C)N(C)C(=O)C(CC(C)C)N(C)C(=O)C(C)NC(=O)C(C)NC(=O)C(CC(C)C)N(C)C(=O)C(C(C)C)NC(=O)C(CC(C)C)N(C)C(=O)CN(C)C1=O [Compound 22A, [2-((2R,3R)-5-(3-(3-chloro-4-fluorobenzyloxy)phenylthio)-3-methyltetrahydrofuran-2-yl)-2-(methylamino)acetic acid]^1-cyclosporin A] | – | IC50 [1]: 0.001 to 1 µM
6 | CCC1NC(=O)C(C2OC(SCc3ccc(Cl)cc3Cl)CC2C)N(C)C(=O)C(C(C)C)N(C)C(=O)C(CC(C)C)N(C)C(=O)C(CC(C)C)N(C)C(=O)C(C)NC(=O)C(C)NC(=O)C(CC(C)C)N(C)C(=O)C(C(C)C)NC(=O)C(CC(C)C)N(C)C(=O)CN(C)C1=O (stereo not drawn) [Compound 89A-s] | 1 to 100 | –
7 | CCC1NC(=O)C(C2OC(Sc3ccc(Cl)c(OCCO)c3)CC2C)N(C)C(=O)C(C(C)C)N(C)C(=O)C(CC(C)C)N(C)C(=O)C(CC(C)C)N(C)C(=O)C(C)NC(=O)C(C)NC(=O)C(CC(C)C)N(C)C(=O)C(C(C)C)NC(=O)C(CC(C)C)N(C)C(=O)CN(C)C1=O [Compound 46A, [2-((2R,3R)-5-(4-chloro-3-(2-hydroxyethoxy)phenylthio)-3-methyltetrahydrofuran-2-yl)-2-(methylamino)acetic acid]^1-cyclosporin A] | – | IC50 [1]: 0.001 to 1 µM
8 | CCC1NC(=O)C(C2OC(SC(C)c3cc(Cl)cc(Cl)c3)CC2C)N(C)C(=O)C(C(C)C)N(C)C(=O)C(CC(C)C)N(C)C(=O)C(CC(C)C)N(C)C(=O)C(C)NC(=O)C(C)NC(=O)C(CC(C)C)N(C)C(=O)C(C(C)C)NC(=O)C(CC(C)C)N(C)C(=O)CN(C)C1=O (stereo not drawn) [Compound 92A-s] | 1 to 100 | –
9 | CCC1NC(=O)C(C2OC(Oc3cc(OCCOC)cc(OCC4CCOCC4)c3)CC2C)N(C)C(=O)C(C(C)C)N(C)C(=O)C(CC(C)C)N(C)C(=O)C(CC(C)C)N(C)C(=O)C(C)NC(=O)C(C)NC(=O)C(CC(C)C)N(C)C(=O)C(C(C)C)NC(=O)C(CC(C)C)N(C)C(=O)CN(C)C1=O (stereo not drawn) [Compound 55-o] | – | IC50 [3]: 1 to 100 µM
10 | CCC1NC(=O)C(C2OC(Sc3cccc(N(C)Cc4ccccc4)c3)CC2C)N(C)C(=O)C(C(C)C)N(C)C(=O)C(CC(C)C)N(C)C(=O)C(CC(C)C)N(C)C(=O)C(C)NC(=O)C(C)NC(=O)C(CC(C)C)N(C)C(=O)C(C(C)C)NC(=O)C(CC(C)C)N(C)C(=O)CN(C)C1=O (stereo not drawn) [Compound 68] | 1 to 100 | –
11 | CCC1NC(=O)C(C2OC(OC(C)c3ccc(Cl)cc3)CC2C)N(C)C(=O)C(C(C)C)N(C)C(=O)C(CC(C)C)N(C)C(=O)C(CC(C)C)N(C)C(=O)C(C)NC(=O)C(C)NC(=O)C(CC(C)C)N(C)C(=O)C(C(C)C)NC(=O)C(CC(C)C)N(C)C(=O)CN(C)C1=O (stereo not drawn) [Compound 102] | 1 to 100 | –
12 | CCC1NC(=O)C(C2OC(OCc3cccc(N4CCOCC4)c3)CC2C)N(C)C(=O)C(C(C)C)N(C)C(=O)C(CC(C)C)N(C)C(=O)C(CC(C)C)N(C)C(=O)C(C)NC(=O)C(C)NC(=O)C(CC(C)C)N(C)C(=O)C(C(C)C)NC(=O)C(CC(C)C)N(C)C(=O)CN(C)C1=O (stereo not drawn) [Compound 95] | 1 to 100 | –
13 | CCC1NC(=O)C(C2OC(SCc3ccccc3Cl)CC2C)N(C)C(=O)C(C(C)C)N(C)C(=O)C(CC(C)C)N(C)C(=O)C(CC(C)C)N(C)C(=O)C(C)NC(=O)C(C)NC(=O)C(CC(C)C)N(C)C(=O)C(C(C)C)NC(=O)C(CC(C)C)N(C)C(=O)CN(C)C1=O (stereo not drawn) [Compound 84A-s] | 1 to 100 | –
14 | CCC1NC(=O)C(C2OC(SCc3cccc(S(=O)(=O)OCC(C)C)c3)CC2C)N(C)C(=O)C(C(C)C)N(C)C(=O)C(CC(C)C)N(C)C(=O)C(CC(C)C)N(C)C(=O)C(C)NC(=O)C(C)NC(=O)C(CC(C)C)N(C)C(=O)C(C(C)C)NC(=O)C(CC(C)C)N(C)C(=O)CN(C)C1=O (stereo not drawn) [Compound 75A-s] | 1 to 100 | –
15 | CCC1NC(=O)C(C2OC(OC(c3ccccc3)c3ccccc3)CC2C)N(C)C(=O)C(C(C)C)N(C)C(=O)C(CC(C)C)N(C)C(=O)C(CC(C)C)N(C)C(=O)C(C)NC(=O)C(C)NC(=O)C(CC(C)C)N(C)C(=O)C(C(C)C)NC(=O)C(CC(C)C)N(C)C(=O)CN(C)C1=O [Compound 80A, [2-((2R,3R)-3-methyl-5-(benzhydryloxy)tetrahydrofuran-2-yl)-2-(methylamino)acetic acid]^1-cyclosporin A] | – | IC50 [1]: 0.001 to 1 µM
16 | CCC1NC(=O)C(C2OC(Sc3ccc(CN4CCN(C)CC4)cc3)CC2C)N(C)C(=O)C(C(C)C)N(C)C(=O)C(CC(C)C)N(C)C(=O)C(CC(C)C)N(C)C(=O)C(C)NC(=O)C(C)NC(=O)C(CC(C)C)N(C)C(=O)C(C(C)C)NC(=O)C(CC(C)C)N(C)C(=O)CN(C)C1=O [Compound 7A, [2-((2R,3R)-3-methyl-5-(4-((4-methylpiperazin-1-yl)methyl)phenylthio)tetrahydrofuran-2-yl)-2-(methylamino)acetic acid]^1-cyclosporin A] | – | IC50 (IC50, given as a range, assay not given): 1 to 10 µM
17 | CCCN(C)c1cccc(OC2CC(C)C(C3C(=O)NC(CC)C(=O)N(C)CC(=O)N(C)C(CC(C)C)C(=O)NC(C(C)C)C(=O)N(C)C(CC(C)C)C(=O)NC(C)C(=O)NC(C)C(=O)N(C)C(CC(C)C)C(=O)N(C)C(CC(C)C)C(=O)N(C)C(C(C)C)C(=O)N3C)O2)c1 (stereo not drawn) [Compound 50A-o] | 1 to 100 | –
18 | CCC1NC(=O)C(C2OC(Oc3cccc(OCc4ccccc4F)c3)CC2C)N(C)C(=O)C(C(C)C)N(C)C(=O)C(CC(C)C)N(C)C(=O)C(CC(C)C)N(C)C(=O)C(C)NC(=O)C(C)NC(=O)C(CC(C)C)N(C)C(=O)C(C(C)C)NC(=O)C(CC(C)C)N(C)C(=O)CN(C)C1=O (stereo not drawn) [Compound 19A-o] | 1 to 100 | –
19 | CCC1NC(=O)C(C2OC(Oc3cc(Cl)cc(OCC4CCOCC4)c3)CC2C)N(C)C(=O)C(C(C)C)N(C)C(=O)C(CC(C)C)N(C)C(=O)C(CC(C)C)N(C)C(=O)C(C)NC(=O)C(C)NC(=O)C(CC(C)C)N(C)C(=O)C(C(C)C)NC(=O)C(CC(C)C)N(C)C(=O)CN(C)C1=O (stereo not drawn) [Compound 67-o] | 1 to 100 | –
20 | CCC1NC(=O)C(C2OC(Sc3cc(OCCOC)cc(OCc4cccs4)c3)CC2C)N(C)C(=O)C(C(C)C)N(C)C(=O)C(CC(C)C)N(C)C(=O)C(CC(C)C)N(C)C(=O)C(C)NC(=O)C(C)NC(=O)C(CC(C)C)N(C)C(=O)C(C(C)C)NC(=O)C(CC(C)C)N(C)C(=O)CN(C)C1=O (stereo not drawn) [Compound 56] | – | IC50 [3]: 1 to 100 µM
21 | CCC1NC(=O)C(C2OC(Sc3ccc(Cl)c(OCCOC)c3)CC2C)N(C)C(=O)C(C(C)C)N(C)C(=O)C(CC(C)C)N(C)C(=O)C(CC(C)C)N(C)C(=O)C(C)NC(=O)C(C)NC(=O)C(CC(C)C)N(C)C(=O)C(C(C)C)NC(=O)C(CC(C)C)N(C)C(=O)CN(C)C1=O [Compound 45A, [2-((2R,3R)-5-(4-chloro-3-(2-methoxyethoxy)phenylthio)-3-methyltetrahydrofuran-2-yl)-2-(methylamino)acetic acid]^1-cyclosporin A] | – | IC50 [1]: 0.001 to 1 µM
22 | CCC1NC(=O)C(C2OC(OCc3cccc(OC)c3)CC2C)N(C)C(=O)C(C(C)C)N(C)C(=O)C(CC(C)C)N(C)C(=O)C(CC(C)C)N(C)C(=O)C(C)NC(=O)C(C)NC(=O)C(CC(C)C)N(C)C(=O)C(C(C)C)NC(=O)C(CC(C)C)N(C)C(=O)CN(C)C1=O [Compound 81A, [2-((2R,3R)-5-(3-methoxybenzyloxy)-3-methyltetrahydrofuran-2-yl)-2-(methylamino)acetic acid]^1-cyclosporin A] | – | IC50 [1]: 0.001 to 1 µM
23 | CCC1NC(=O)C(C2OC(Oc3cccc(NC)c3)CC2C)N(C)C(=O)C(C(C)C)N(C)C(=O)C(CC(C)C)N(C)C(=O)C(CC(C)C)N(C)C(=O)C(C)NC(=O)C(C)NC(=O)C(CC(C)C)N(C)C(=O)C(C(C)C)NC(=O)C(CC(C)C)N(C)C(=O)CN(C)C1=O (stereo not drawn) [Compound 47A-o] | 1 to 100 | –
24 | CCC1NC(=O)C(C2OC(OC(C)c3ccccc3)CC2C)N(C)C(=O)C(C(C)C)N(C)C(=O)C(CC(C)C)N(C)C(=O)C(CC(C)C)N(C)C(=O)C(C)NC(=O)C(C)NC(=O)C(CC(C)C)N(C)C(=O)C(C(C)C)NC(=O)C(CC(C)C)N(C)C(=O)CN(C)C1=O (single isomer, unassigned) [Compound 78A] | – | IC50 [1]: 0.001 to 1 µM
